Results taken from publication PMC2920549, “Bromopyrrole Alkaloids as Lead Compounds against Protozoan Parasites” (Marine Drugs, 2010).
Converted amounts (≈) assume the structure as drawn. Read-outs that look alike come from different tables or passages of the source.

What was measured:
[1] = target: T1, PfFabZ (β-hydroxyacyl-ACP dehydratase) (Plasmodium falciparum, UniProt Q965D7); experiment: biochemical
T1 construct: made in house
T1 sequence (Q965D7 19-230): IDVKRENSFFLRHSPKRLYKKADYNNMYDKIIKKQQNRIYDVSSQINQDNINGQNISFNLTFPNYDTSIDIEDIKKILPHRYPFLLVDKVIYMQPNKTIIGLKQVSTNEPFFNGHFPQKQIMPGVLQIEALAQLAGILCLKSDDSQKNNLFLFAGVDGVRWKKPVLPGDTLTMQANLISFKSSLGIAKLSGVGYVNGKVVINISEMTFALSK
Description: Expression and purification of the PfFab enzymes as well as the assays were performed as described [29]. […] Measurements were carried out in Nundron Surface sterile 96-well plates, using 20 mM Hepes and 150 mM NaCl at pH 7.4. Compounds were dissolved in DMSO (maximum final concentration 1%). A dilution series of 50 μg/mL to 0.0005 μg/mL of dissolved compounds was measured. For PfFabI, 400 μM NADH (cofactor, Sigma) was added to 2 μg enzyme and reaction started by addition of 300 μM crotonyl-CoA (substrate, Sigma). The change of absorbance of the mixture was recorded spectrophotometrically at 340 nm for 40 minutes. Triclosan was used as a positive control and was analyzed the same way. For PfFabG 400 μM NADPH (cofactor, Fluka) was added to 0.5 μg enzyme and reaction started by addition of 300 μM acetoacetyl-CoA (substrate, Sigma). The change of absorbance of the mixture was recorded spectrophotometrically at 340 nm for 20 minutes. (-)-Epigallocatechin gallate (Sigma) was used as a positive control and was analyzed the same way. For PfFabZ, 600 μM crotonoyl-CoA (substrate, Sigma) was added to 0.5 μg enzyme. The change of absorbance of the mixture was recorded spectrophotometrically at 260 nm for 20 minutes. (−)-Epigallocatechin gallate was used as a positive control. IC50 values were estimated from graphically plotted dose-response curves. […]

[2] = tested on: T. cruzi Tulahuen strain C2C4 intracellular amastigotes in L6 rat skeletal myoblasts; experiment: Activity against Trypanosoma cruzi (beta-galactosidase/CPRG assay in L6 cells); assay type: cell-based; conditions: Trypanosoma cruzi, TULAHUEN, L6, 96 h
Description: Then the substrate CPRG/Nonidet (50 μl) was added to all wells. A color reaction developed within 2–6 h and could be read photometrically at 540 nm. Data were transferred into the graphic programme Softmax Pro (Molecular Devices), which calculated IC50 values. […] Benznidazole was the standard drug used.

[3] = tested on: P. falciparum K1 strain erythrocytic stages; experiment: Activity against Plasmodium falciparum ([3H]-hypoxanthine incorporation); assay type: cell-based; conditions: for IC50: Plasmodium falciparum
Description: (§1) The toxicity on mammalian cells was assessed against L6 cells, a primary cell line derived from rat skeletal myoblasts.
The radioactivity was counted using a Betaplate^TM liquid scintillation counter (Wallac, Zurich, Switzerland). […] IC50 values were calculated from graphically plotted dose-response curves.

[4] = tested on: T. b. rhodesiense STIB 900 bloodstream forms; parameters: method as in PMID 17765547; conditions: earlier study; cited from earlier work
[5] = tested on: PfFabI (enoyl-ACP reductase); parameters: method as in PMID 17765547; conditions: previous project; cited from earlier work
[6] = tested on: T. cruzi Tulahuen strain C2C4 intracellular amastigotes in L6 rat skeletal myoblasts; parameters: method as in PMID 17765547; conditions: earlier study; cited from earlier work
[7] = tested on: P. falciparum K1 strain erythrocytic stages; parameters: method as in PMID 17765547; conditions: earlier study; cited from earlier work
[8] = tested on: L6 cells; parameters: method as in PMID 17765547; conditions: earlier study; cited from earlier work
[9] = tested on: L. donovani strain MHOM/ET/67/L82 axenic amastigotes; parameters: method as in PMID 17765547; conditions: earlier study; cited from earlier work
[10] = tested on: T. b. rhodesiense STIB 900 bloodstream forms; experiment: Activity against Trypanosoma brucei rhodesiense (resazurin assay); assay type: cell-based; conditions: Trypanosoma brucei; STIB 900 bloodstream forms, 72 h; read-out: IC50 T. b. rhodesiense
Description: as §1
STIB 900 strain of T. b. rhodesiense and the standard drug melarsoprol were used for the assay. […] Data were analyzed using the microplate reader software Softmax Pro (Molecular Devices Cooperation, Sunnyvale, CA, USA).

[11] = tested on: L. donovani strain MHOM/ET/67/L82 axenic amastigotes; experiment: Activity against Leishmania donovani (axenic amastigotes, resazurin); assay type: cell-based; conditions: 72 h, axenic amastigotes, 72 h; for IC50: Leishmania donovani, read-out: IC50 L. donovani
Description: as §1
Amastigotes of L. donovani strain MHOM/ET/67/L82 were grown in axenic culture at 37 °C in SM medium at pH 5.4 supplemented with 10% heat-inactivated fetal bovine serum under an atmosphere of 5% CO2 in air. One hundred μL of culture medium with 10^5 amastigotes from axenic culture with or without a serial drug dilution were seeded in 96-well microtiter plates. […] Data were analyzed using the software Softmax Pro. Decrease of fluorescence (=inhibition) was expressed as percentage of the fluorescence of control cultures and plotted against the drug concentrations. From the sigmoidal inhibition curves the IC50 values were calculated. […] Miltefosine was used as a reference drug.

[12] = Cytotoxicity against L6-cells (resazurin); assay type: cell-based, rat; conditions: rat
Description: as §1
(§2) Assays were performed in 96-well microtiter plates, each well containing 100 μL of RPMI 1640 medium supplemented with 1% L-glutamine (200 mM) and 10% fetal bovine serum, and 4 × 10^4 L-6 cells (a primary cell line derived from rat skeletal myoblasts). Serial drug dilutions of seven 3-fold dilution steps covering a range from 90 to 0.123 μg/mL were prepared. After 72 h of incubation the plates were inspected under an inverted microscope to assure growth of the controls and sterile conditions. 10 μl of a resazurin solution (12.5 mg resazurin dissolved in 100 mL distilled water) was then added to each well and the plates incubated for another 2 h. Then the plates were read with a Spectramax Gemini XS microplate fluorometer using an excitation wavelength of 536 nm and an emission wavelength of 588 nm. Data were analyzed using the microplate reader software Softmax Pro. Each CC50 value obtained is the mean of at least two separate experiments performed in duplicate. Podophyllotoxin was the standard drug used.

[13] = tested on: L6 cells; experiment: Cytotoxicity against L6-cells (resazurin); assay type: cell-based, rat; conditions: 72 h
Description: as §1, §2

[14] = K1, K1 strain, erythrocytic stage, read-out: IC50 P. falciparum

Row | SMILES | IC50 [2] [µg/mL] | IC50 [3, 14] [µg/mL] | IC50 [10] [µg/mL] | IC50 [11] [µg/mL] | CC50 at 72 h [12] [µg/mL] | other results
1 | O=C(O[C@@H]1Cc2c(O)cc(O)cc2O[C@@H]1c1cc(O)c(O)c(O)c1)c1cc(O)c(O)c(O)c1 [(−)-epigallocatechin gallate, reference compound] |  |  |  |  |  | IC50 [1]: 698 nM
2 | O=C(Cn1ccnc1[N+](=O)[O-])NCc1ccccc1 [Benznidazole, reference compound] | 0.312 (≈ 1.2 µM) |  |  |  |  | 
3 | CCN(CC)CCCC(C)Nc1ccnc2cc(Cl)ccc12 (stereo not shown) [Chloroquine, reference compound] |  |  |  |  |  | IC50 ([3]; K1, read-out: IC50 P. falciparum): 0.065 µg/mL (≈ 0.203 µM)
4 | Nc1ncc(/C=C/CNC(=O)c2cc(Br)c(Br)[nH]2)[nH]1 [Compound 1a, oroidin] |  |  |  |  |  | IC50 T. b. rhodesiense [4]: 17.30 ^1 μg/mL; PfFabI inhibition (in words) [5]: potent PfFAbI inhibitors; IC50 T. cruzi [6]: >30 ^1 μg/mL; IC50 P. falciparum [7]: 3.90 ^1 μg/mL; CC50 Cytotoxicity L6 cells [8]: 88.60 ^1 μg/mL; IC50 L. donovani [9]: >30 ^1 μg/mL
5 | Nc1ncc(/C=C/CNC(=O)c2cc(Br)c(Br)[nH]2)[nH]1 [Compound 1b, oroidin] |  |  |  |  |  | IC50 T. b. rhodesiense [4]: 12.20 ^1 μg/mL; PfFabI inhibition (in words) [5]: potent PfFAbI inhibitors; IC50 T. cruzi [6]: >30 ^1 μg/mL; IC50 P. falciparum [7]: 7.90 ^1 μg/mL; CC50 Cytotoxicity L6 cells [8]: 76.40 ^1 μg/mL; IC50 L. donovani [9]: 15.40 ^1 μg/mL
6 | Nc1ncc(/C=C/CNC(=O)c2cc(Br)c[nH]2)[nH]1 [Compound 2, hymenidin] |  | 12.5 (≈ 40.4 µM) | 77.6 (≈ 250 µM) | 29.9 (≈ 96.3 µM) | 75.7 (≈ 244 µM) | 
7 | NC1=NC(=O)/C(=C/CCNC(=O)c2cc(Br)c[nH]2)N1 [Compound 3, dispacamide B] | > 90 | 1.09 (≈ 3.34 µM) | 40.1 (≈ 123 µM) | > 90 | > 90 | Selectivity index (CC50 L6 / IC50 parasite) for P. falciparum ([3]; CC50 L6 cells divided by IC50 P. falciparum): > 67.2; IC50 P. falciparum ([3]; K1 strain, erythrocytic stage): 1.34 µg/mL (≈ 4.11 µM); IC50 L. donovani [11]: completely inactive; CC50 Cytotoxicity L6 cells [13]: devoid of any cytotoxicity
8 | NC1=NC(=O)/C(=C/C(O)CNC(=O)c2cc(Br)c[nH]2)N1 (stereo not shown) [Compound 4, dispacamide D] | > 90 | > 20 | 68.2 (≈ 199 µM) | 53.8 (≈ 157 µM) | > 90 | 
9 | Nc1ncc(C2=CCNC(=O)c3[nH]c(Br)c(Br)c32)[nH]1 [Compound 5, stevensine] | > 90 | 4.88 (≈ 12.6 µM) | 25.3 (≈ 65.5 µM) | 75.9 (≈ 196 µM) | > 90 | 
10 | O=C1CCNC(=O)c2[nH]c(Br)cc21 [Compound 7, bromoaldisin] | > 90 | > 20 | 61.5 (≈ 253 µM) | > 90 | > 90 | 
